Experimental data reported in patent US20060069132A1, “Azolecarboxamide herbicides” (priority 2004, published 2006).

Experiments:
barnyardgrass [1] = assay: Test B pre-/postemergence herbicide test; format: in vivo, Echinochloa crus-galli
Method in brief: (§1)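 Pre: seeds sown, then sprayed. Post: 1–4-leaf plants (2–18 cm) sprayed at the same time. Paddy: flooded, treated at 2-leaf stage. Formulation: non-phytotoxic solvent with surfactant. Greenhouse 13–15 days; visual 0–100 score relative to controls.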

giant foxtail = assay: Test B pre-/postemergence herbicide test; format: in vivo, Setaria faberi
Method in brief: (§2)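 Flooded paddy rice and barnyardgrass were treated at the 2-leaf stage; upland plantings received compound either on sown seed or on 1- to 4-leaf seedlings. All were kept 13–15 days in a greenhouse and scored visually, 0–100, relative to untreated plants.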

wild oat = assay: Test B postemergence herbicide test; format: in vivo, Avena fatua; conditions: scale 0 (no effect) to 100 (complete control)
Method in brief: (§3)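 Postemergence plants were sprayed with formulated test chemicals at 2 to 18 cm height (1- to 4-leaf stage); paddy species were grown to the 2-leaf stage. After 13 to 15 days in a greenhouse, injury was rated visually against untreated controls on a 0–100 scale (0 = no effect, 100 = complete control).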

wheat = assay: Test B postemergence herbicide test; format: in vivo, Triticum aestivum; set-up: key to Wheat plant response rating: 0 = no effect, 100 = complete control; conditions: scale 0 (no effect) to 100 (complete control)
Method in brief: as §3

morningglory = assay: Test B pre-/postemergence herbicide test; format: in vivo, Ipomoea coccinea
Method in brief: as §1

pigweed = assay: Test B pre-/postemergence herbicide test; format: in vivo, Amaranthus retroflexus
Method in brief: as §2

rice [2] = assay: Test B pre-/postemergence herbicide test; format: in vivo, Oryza sativa; conditions: preemergence, 125 g ai/ha; 0 to 100 scale, 0 is no effect, 100 is complete control
Method in brief: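 Evaluation is visual, comparing treated with control plants on a scale where 0 means no effect and 100 means full control. Treatments were preemergence, or postemergence on seedlings 2–18 cm tall, and held 13–15 days in the greenhouse.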

rice [3] = assay: Test B flooded paddy test; format: in vivo, Oryza sativa; conditions: 1000 g ai/ha, visual rating, scale 0 to 100 (0 no effect, 100 complete control), 13 to 15 days
Method in brief: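 After treating 2-leaf paddy plants or 2–18 cm postemergence plants (1 to 4 leaves) with formulated chemical, researchers kept them in a greenhouse for 13–15 days. Effects were judged visually versus controls: 0 indicates none, 100 total control.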

blackgrass = assay: Test B postemergence herbicide test; format: in vivo, Alopecurus myosuroides; conditions: scale 0 (no effect) to 100 (complete control)
Method in brief: (§4)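 Read-out: visual comparison with controls, scored 0 to 100, where 100 means complete control and 0 no effect. Formulated chemicals were applied postemergence to plants 2–18 cm tall (1- to 4-leaf), or to flooded-paddy plants at the 2-leaf stage, then held 13 to 15 days under glass.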

Surinam grass = assay: Test B pre-/postemergence herbicide test; format: in vivo, Urochloa decumbens
Method in brief: as §2

[4] = tested on: small flower umbrella sedge; assay: Test B flooded paddy test; format: in vivo, Cyperus difformis; conditions: 1000 g ai/ha, visual rating, scale 0 to 100 (0 no effect, 100 complete control), 13 to 15 days
Method in brief: as §4

ducksalad = assay: Test B flooded paddy test; format: in vivo, Heteranthera limosa; conditions: 1000 g ai/ha, visual rating, scale 0 to 100 (0 no effect, 100 complete control), 13 to 15 days
Method in brief: as §4

large crabgrass = assay: Test B pre-/postemergence herbicide test; format: in vivo, Digitaria sanguinalis
Method in brief: as §2

lambsquarters = assay: Test B pre-/postemergence herbicide test; format: in vivo, Chenopodium album
Method in brief: as §2

corn = assay: Test B pre-/postemergence herbicide test; format: in vivo, Zea mays
Method in brief: as §2

cocklebur = assay: Test B pre-/postemergence herbicide test; format: in vivo, Xanthium strumarium
Method in brief: as §1

velvetleaf = assay: Test B pre-/postemergence herbicide test; format: in vivo, Abutilon theophrasti
Method in brief: as §2

barnyardgrass [5] = assay: Test B flooded paddy test; format: in vivo, Echinochloa crus-galli; conditions: 1000 g ai/ha, visual rating, scale 0 to 100 (0 no effect, 100 complete control), 13 to 15 days
Method in brief: as §4

[6] = Postemergence, 500 g ai/ha, visual rating after 13 to 15 days, scale 0 (no effect) to 100 (complete control)
[7] = Preemergence, 500 g ai/ha, scale 0 to 100
[8] = postemergence, 125 g ai/ha, visual rating, scale 0 (no effect) to 100 (complete control)
[9] = preemergence, 125 g ai/ha, 0 to 100 scale, 0 is no effect, 100 is complete control
[10] = Postemergence, 500 g ai/ha, visual rating after 13 to 15 days
[11] = postemergence, 125 g ai/ha, visual rating

CCn1nc(C(C)(C)C)cc1C(=O)Nc1cc(C(=O)OC(C)C)c(OC)cc1F [Compound 77]
Plant response rating, Barnyardgrass (barnyardgrass [1]; [6]): 0
Barnyardgrass plant response rating (barnyardgrass [1]; [7]): 70
Barnyardgrass plant response rating (barnyardgrass [1]; [8]): 0
Plant response rating, Barnyardgrass (barnyardgrass [1]; [9]): 0
Plant response rating, Foxtail, Giant (giant foxtail; [6]): 40
Foxtail, Giant plant response rating (giant foxtail; [7]): 60
Foxtail, Giant plant response rating (giant foxtail; [8]): 0
Plant response rating, Foxtail, Giant (giant foxtail; [9]): 0
Plant response rating, Oat, Wild (wild oat; [10]): 40
Oat, Wild plant response rating (wild oat; [11]): 40
Plant response rating, Wheat (wheat; [10]): 20
Wheat plant response rating (wheat; [11]): 10
Plant response rating, Morningglory (morningglory; [6]): 70
Morningglory plant response rating (morningglory; [8]): 0
Plant response rating, Morningglory (morningglory; [9]): 0
Plant response rating, Pigweed (pigweed; [6]): 90
Pigweed plant response rating (pigweed; [8]): 70
Plant response rating, Pigweed (pigweed; [9]): 90
Plant response rating, Rice (rice [2]): 0
Rice plant response rating (rice [3]): 70
Plant response rating, Blackgrass (blackgrass; [10]): 30
Blackgrass plant response rating (blackgrass; [11]): 20
Plant response rating, Surinam Grass (Surinam grass; [6]): 20
Surinam Grass plant response rating (Surinam grass; [8]): 0
Plant response rating, Surinam Grass (Surinam grass; [9]): 0
Sedge, Umbrella plant response rating [4]: 80
Ducksalad plant response rating (ducksalad): 40
Plant response rating, Crabgrass, Large (large crabgrass; [6]): 40
Crabgrass, Large plant response rating (large crabgrass; [7]): 80
Crabgrass, Large plant response rating (large crabgrass; [8]): 0
Plant response rating, Crabgrass, Large (large crabgrass; [9]): 0
Plant response rating, Lambsquarters (lambsquarters; [6]): 90
Lambsquarters plant response rating (lambsquarters; [8]): 50
Plant response rating, Lambsquarters (lambsquarters; [9]): 60
Plant response rating, Corn (corn; [6]): 10
Corn plant response rating (corn; [7]): 40
Corn plant response rating (corn; [8]): 10
Plant response rating, Corn (corn; [9]): 0
Plant response rating, Cocklebur (cocklebur; [6]): 0
Cocklebur plant response rating (cocklebur; [7]): 0
Cocklebur plant response rating (cocklebur; [8]): 0
Plant response rating, Cocklebur (cocklebur; [9]): 0
Plant response rating, Velvetleaf (velvetleaf; [6]): 30
Velvetleaf plant response rating (velvetleaf; [8]): 20
Plant response rating, Velvetleaf (velvetleaf; [9]): 0
Barnyardgrass plant response rating (barnyardgrass [5]): 40
